Activity calls are given as the source filed them. No cut-off for these calls is given here.

Assay [1] has as its system MCF7. The assay is described as follows: Induction of mitochondrial membrane depolarization in human MCF7 cells after 24 to 48 hrs by JC-1 staining based FACS assay (reference value: 9.9%). The class given is functional. For orientation: A flow cytometer gives signals particle by particle.
The subject of assay [2] is MCF7. The assay is described as follows: Induction of mitochondrial membrane depolarization in human MCF7 cells assessed as ratio of red to green fluorescence after 24 to 48 hrs by JC-1 staining based FACS assay (reference value: 9.1). The class given is functional.
The target in assay [3] is T1, DNA topoisomerase 1 (Homo sapiens) (UniProt P11387).
T1 sequence (whole entry): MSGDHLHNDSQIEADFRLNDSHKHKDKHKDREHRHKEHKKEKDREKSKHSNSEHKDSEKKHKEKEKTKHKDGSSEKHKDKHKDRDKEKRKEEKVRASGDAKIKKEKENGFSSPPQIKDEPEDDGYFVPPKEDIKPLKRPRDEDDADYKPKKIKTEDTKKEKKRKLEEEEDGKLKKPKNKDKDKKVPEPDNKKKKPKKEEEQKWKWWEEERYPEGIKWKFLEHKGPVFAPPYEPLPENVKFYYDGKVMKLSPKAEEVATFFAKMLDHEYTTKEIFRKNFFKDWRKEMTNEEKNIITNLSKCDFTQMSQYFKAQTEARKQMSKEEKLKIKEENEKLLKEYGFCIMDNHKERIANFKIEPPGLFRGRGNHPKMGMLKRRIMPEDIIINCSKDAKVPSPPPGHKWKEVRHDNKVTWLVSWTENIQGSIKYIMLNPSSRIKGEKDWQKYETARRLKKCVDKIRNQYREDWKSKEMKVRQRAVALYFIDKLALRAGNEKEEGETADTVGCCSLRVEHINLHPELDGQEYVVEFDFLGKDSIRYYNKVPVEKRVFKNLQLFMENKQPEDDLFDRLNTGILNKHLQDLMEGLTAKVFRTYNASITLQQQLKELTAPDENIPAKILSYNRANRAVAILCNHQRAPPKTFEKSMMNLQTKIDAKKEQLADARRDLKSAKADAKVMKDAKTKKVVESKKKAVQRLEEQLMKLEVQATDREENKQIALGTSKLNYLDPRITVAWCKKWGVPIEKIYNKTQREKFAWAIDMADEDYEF
The experiment in a line: Poisoning activity at topoisomerase 1 in human MCF7 cells at 10 uM after 12 hrs by immunoband depletion assay. The class given is cell-based.

In assay [4] the target is DNA topoisomerase 2-alpha (Homo sapiens) (UniProt P11388). The assay is described as follows: Poisoning activity at topoisomerase 2 in human MCF7 cells at 10 uM after 12 hrs by immunoband depletion assay. The class given is cell-based.
Sequence of DNA topoisomerase 2-alpha (Homo sapiens) (P11388 whole entry): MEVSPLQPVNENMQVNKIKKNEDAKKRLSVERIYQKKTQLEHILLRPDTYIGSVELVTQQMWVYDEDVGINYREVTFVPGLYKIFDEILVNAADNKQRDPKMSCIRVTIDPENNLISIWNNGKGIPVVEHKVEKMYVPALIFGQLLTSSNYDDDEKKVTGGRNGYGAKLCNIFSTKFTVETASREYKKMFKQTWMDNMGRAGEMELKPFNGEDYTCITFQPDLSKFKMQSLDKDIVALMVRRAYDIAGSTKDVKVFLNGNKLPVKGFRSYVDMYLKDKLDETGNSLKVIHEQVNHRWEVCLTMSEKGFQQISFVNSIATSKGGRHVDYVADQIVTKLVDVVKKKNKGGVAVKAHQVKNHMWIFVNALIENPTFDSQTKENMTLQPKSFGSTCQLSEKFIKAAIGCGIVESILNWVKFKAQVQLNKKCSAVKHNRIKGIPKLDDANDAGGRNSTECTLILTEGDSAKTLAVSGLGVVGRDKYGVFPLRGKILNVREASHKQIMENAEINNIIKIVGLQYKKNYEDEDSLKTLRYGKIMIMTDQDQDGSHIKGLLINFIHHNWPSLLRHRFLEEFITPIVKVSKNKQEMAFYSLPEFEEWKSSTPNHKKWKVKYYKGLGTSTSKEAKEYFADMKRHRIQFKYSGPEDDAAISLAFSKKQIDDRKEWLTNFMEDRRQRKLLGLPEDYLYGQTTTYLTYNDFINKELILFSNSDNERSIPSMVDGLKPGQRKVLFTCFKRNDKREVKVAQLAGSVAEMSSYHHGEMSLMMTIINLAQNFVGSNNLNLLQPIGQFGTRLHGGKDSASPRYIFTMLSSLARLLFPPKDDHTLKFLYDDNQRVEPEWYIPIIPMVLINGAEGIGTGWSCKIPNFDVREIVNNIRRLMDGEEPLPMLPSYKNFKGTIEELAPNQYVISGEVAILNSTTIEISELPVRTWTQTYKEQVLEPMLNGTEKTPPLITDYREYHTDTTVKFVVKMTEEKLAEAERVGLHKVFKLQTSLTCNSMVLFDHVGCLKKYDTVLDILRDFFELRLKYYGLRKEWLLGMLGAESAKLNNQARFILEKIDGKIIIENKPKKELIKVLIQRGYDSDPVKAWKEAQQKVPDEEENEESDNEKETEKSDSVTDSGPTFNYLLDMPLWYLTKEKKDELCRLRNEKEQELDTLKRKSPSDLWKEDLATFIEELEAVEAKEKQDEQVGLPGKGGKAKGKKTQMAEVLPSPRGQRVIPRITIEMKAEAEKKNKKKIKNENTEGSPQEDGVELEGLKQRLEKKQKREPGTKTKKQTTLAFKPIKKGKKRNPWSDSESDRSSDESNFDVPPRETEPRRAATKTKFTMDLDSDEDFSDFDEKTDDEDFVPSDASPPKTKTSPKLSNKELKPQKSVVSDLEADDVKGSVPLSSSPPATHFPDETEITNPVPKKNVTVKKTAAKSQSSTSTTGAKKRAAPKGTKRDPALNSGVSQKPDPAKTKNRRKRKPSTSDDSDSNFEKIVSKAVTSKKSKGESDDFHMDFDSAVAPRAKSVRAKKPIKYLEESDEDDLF

For `N#CC(C#N)=NNc1cccc(Cl)c1` [CARBONYL CYANIDE M-CHLOROPHENYLHYDRAZONE], the Activity in the assay on MCF7 [1] came to 98.8%. Further, in the assay with MCF7 [2], the Ratio was found to be 0.014.
`CC[C@@]1(O)C(=O)OCc2c1cc1n(c2=O)Cc2cc3ccccc3nc2-1`: the result in assay [3] was Active.
In the case of `COc1cc([C@@H]2c3cc4c(cc3[C@@H](O[C@@H]3O[C@@H]5CO[C@@H](C)O[C@H]5[C@H](O)[C@H]3O)[C@H]3COC(=O)[C@H]23)OCO4)cc(OC)c1O`, in assay [4], the result was Active.

Values taken from ChEMBL document CHEMBL3817761, “Chenopodium album metabolites act as dual topoisomerase inhibitors and induce apoptosis in the MCF7 cell line” (Medchemcomm, 2016).
